Reference: ChEMBL document CHEMBL3046384, “Pharmacophore modeling and structure-based virtual screening for a novel switch region target of bacterial RNA polymerase” (Med Chem Res, 2012)

Assay: Inhibition of RNA polymerase of Bacteria

Row | SMILES | IC50 [nM]
1 | C/C=C/C/C=C(\C)C(O)CC/C(C)=C/C=C(\C)C(=O)c1c(O)cc([C@H](C)CC/C=C/NC(=O)OC)oc1=O (stereo partly drawn) [CORALLOPYRONIN A] | 4000
2 | CCC/C(C)=C/C=C(\C)C(=O)c1c(O)cc([C@H](C)CC/C=C/NC(=O)OC)oc1=O [MYXOPORIN A] | 1000
3 | C/C(=C\Cc1ccccc1)CCC(=O)C[C@H]1C[C@H](O)C/C(C)=C/C/C=C/C/C(CC(=O)O)=C\C(=O)O1 [RIPOSTATIN] | 800
